Data taken from PubChem BioAssay (NCI).
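Protocol summary: plate cells (96-well), add compound at 5 concentrations, incubate 48 h, interpolate endpoints linearly. The concentration for 50% growth inhibition is given as GI50. TGI is the concentration that stops growth completely.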

What was measured:
Experiment in all cases: NCI-60 cell line screen, 48 h
CAKI-1 renal = tested on: CAKI-1 renal
MCF7 breast = tested on: MCF7 breast
SW-620 colon = tested on: SW-620 colon
ACHN renal = tested on: ACHN renal
NCI-H522 lung = tested on: NCI-H522 lung
COLO 205 colon = tested on: COLO 205 colon
SF-539 CNS = tested on: SF-539 CNS
LOX IMVI melanoma = tested on: LOX IMVI melanoma
SK-MEL-5 melanoma = tested on: SK-MEL-5 melanoma
SK-OV-3 ovarian = tested on: SK-OV-3 ovarian
NCI-H460 lung = tested on: NCI-H460 lung
CCRF-CEM leukemia = tested on: CCRF-CEM leukemia
HS 578T breast = tested on: HS 578T breast
EKVX NSCLC = tested on: EKVX NSCLC
NCI-H23 lung = tested on: NCI-H23 lung
SF-295 CNS = tested on: SF-295 CNS
SK-MEL-28 melanoma = tested on: SK-MEL-28 melanoma
HT29 colon = tested on: HT29 colon
NCI/ADR-RES ovarian = tested on: NCI/ADR-RES ovarian
KM12 colon = tested on: KM12 colon
NCI-H226 lung = tested on: NCI-H226 lung
M14 melanoma = tested on: M14 melanoma
HCT-15 colon = tested on: HCT-15 colon
K-562 leukemia = tested on: K-562 leukemia
786-0 renal = tested on: 786-0 renal
HOP-92 NSCLC = tested on: HOP-92 NSCLC
HCT-116 colon = tested on: HCT-116 colon
IGROV1 ovarian = tested on: IGROV1 ovarian
OVCAR-4 ovarian = tested on: OVCAR-4 ovarian
MDA-MB-435 = tested on: MDA-MB-435
PC-3 prostate = tested on: PC-3 prostate
BT-549 breast = tested on: BT-549 breast
UACC-62 melanoma = tested on: UACC-62 melanoma
OVCAR-3 ovarian = tested on: OVCAR-3 ovarian
SNB-19 CNS = tested on: SNB-19 CNS
T-47D breast = tested on: T-47D breast
SF-268 CNS = tested on: SF-268 CNS
RXF 393 renal = tested on: RXF 393 renal
UO-31 renal = tested on: UO-31 renal
MDA-MB-231 breast = tested on: MDA-MB-231 breast
OVCAR-5 ovarian = tested on: OVCAR-5 ovarian
SK-MEL-2 melanoma = tested on: SK-MEL-2 melanoma
SR leukemia = tested on: SR leukemia
U251 CNS = tested on: U251 CNS
SN12C renal = tested on: SN12C renal
A549 NSCLC = tested on: A549 NSCLC
OVCAR-8 ovarian = tested on: OVCAR-8 ovarian
MOLT-4 leukemia = tested on: MOLT-4 leukemia
RPMI-8226 leukemia = tested on: RPMI-8226 leukemia
SNB-75 CNS = tested on: SNB-75 CNS
HCC-2998 colon = tested on: HCC-2998 colon
A498 renal = tested on: A498 renal
DU-145 prostate = tested on: DU-145 prostate
UACC-257 melanoma = tested on: UACC-257 melanoma
HOP-62 NSCLC = tested on: HOP-62 NSCLC
TK-10 renal = tested on: TK-10 renal
MALME-3M melanoma = tested on: MALME-3M melanoma
HL-60(TB) leukemia = tested on: HL-60(TB) leukemia

Which TGI (CAKI-1 renal) does the source give for `OCc1cn(Cc2ccc(Cl)cc2)c2ccccc12` here?
Its TGI is 2.15 µM.

And the GI50 (MCF7 breast)?
The GI50 was 0.105 µM.

What about the TGI (MCF7 breast) of the same molecule?
The TGI was 9.02 µM.

And the GI50 (SW-620 colon)?
Its GI50 is 0.811 µM.

And the TGI (SW-620 colon)?
Its TGI is 22.9 µM.

What about the GI50 (ACHN renal) of the same molecule?
The GI50 was 3.57 µM.

What about the TGI (ACHN renal) of the same molecule?
Its TGI is 34.2 µM.

And the GI50 (NCI-H522 lung)?
The GI50 was 3.21 µM.

What about the TGI (NCI-H522 lung) of the same molecule?
The TGI was 14.8 µM.

What about the GI50 (COLO 205 colon) of the same molecule?
Its GI50 is 0.615 µM.

What about the TGI (COLO 205 colon) of the same molecule?
Its TGI is 6.89 µM.

What about the GI50 (SF-539 CNS) of the same molecule?
The GI50 was 11.5 µM.

What about the TGI (SF-539 CNS) of the same molecule?
Its TGI is 27.8 µM.

And the GI50 (LOX IMVI melanoma)?
Its GI50 is 4.26 µM.

And the TGI (LOX IMVI melanoma)?
The TGI was 16.1 µM.

What about the GI50 (SK-MEL-5 melanoma) of the same molecule?
Its GI50 is 4.59 µM.

What about the TGI (SK-MEL-5 melanoma) of the same molecule?
The TGI was 18.6 µM.

What about the GI50 (SK-OV-3 ovarian) of the same molecule?
The GI50 was 2.88 µM.

What about the TGI (SK-OV-3 ovarian) of the same molecule?
The TGI was 33.2 µM.

And the GI50 (NCI-H460 lung)?
The GI50 was 0.124 µM.

And the TGI (NCI-H460 lung)?
The TGI was 18.5 µM.

What about the GI50 (CCRF-CEM leukemia) of the same molecule?
The GI50 was 2.2 µM.

And the TGI (CCRF-CEM leukemia)?
The TGI was 16.8 µM.

What about the GI50 (HS 578T breast) of the same molecule?
The GI50 was 4.76 µM.

What about the TGI (HS 578T breast) of the same molecule?
The TGI was 25.6 µM.

What about the GI50 (EKVX NSCLC) of the same molecule?
The GI50 was 21.1 µM.

What about the TGI (EKVX NSCLC) of the same molecule?
Its TGI is 60 µM.

What about the GI50 (NCI-H23 lung) of the same molecule?
Its GI50 is 3.85 µM.

What about the TGI (NCI-H23 lung) of the same molecule?
The TGI was 21.1 µM.

What about the GI50 (SF-295 CNS) of the same molecule?
Its GI50 is 1.62 µM.

And the TGI (SF-295 CNS)?
Its TGI is 32.9 µM.

And the GI50 (SK-MEL-28 melanoma)?
Its GI50 is 15.1 µM.

And the TGI (SK-MEL-28 melanoma)?
The TGI was 44 µM.

And the GI50 (HT29 colon)?
Its GI50 is 1.35 µM.

And the TGI (HT29 colon)?
Its TGI is 17.8 µM.

What about the GI50 (NCI/ADR-RES ovarian) of the same molecule?
Its GI50 is 8.41 µM.

What about the TGI (NCI/ADR-RES ovarian) of the same molecule?
Its TGI is 30.8 µM.

What about the GI50 (KM12 colon) of the same molecule?
Its GI50 is 16.9 µM.

And the TGI (KM12 colon)?
Its TGI is 38.1 µM.

What about the GI50 (NCI-H226 lung) of the same molecule?
Its GI50 is under 0.01 µM.

And the TGI (NCI-H226 lung)?
Its TGI is 0.106 µM.

And the GI50 (M14 melanoma)?
The GI50 was 5.95 µM.

What about the TGI (M14 melanoma) of the same molecule?
The TGI was 22.1 µM.

What about the GI50 (HCT-15 colon) of the same molecule?
Its GI50 is 3.44 µM.

What about the TGI (HCT-15 colon) of the same molecule?
Its TGI is 28.5 µM.

And the GI50 (K-562 leukemia)?
The GI50 was 1.61 µM.

What about the TGI (K-562 leukemia) of the same molecule?
Its TGI is 25.4 µM.

And the GI50 (786-0 renal)?
The GI50 was 2.51 µM.

And the TGI (786-0 renal)?
The TGI was 21.2 µM.

What about the GI50 (HOP-92 NSCLC) of the same molecule?
Its GI50 is 3.03 µM.

What about the TGI (HOP-92 NSCLC) of the same molecule?
Its TGI is 19.7 µM.

What about the GI50 (HCT-116 colon) of the same molecule?
The GI50 was 0.0393 µM.

And the TGI (HCT-116 colon)?
Its TGI is 12 µM.

And the GI50 (IGROV1 ovarian)?
Its GI50 is under 0.0227 µM.

What about the TGI (IGROV1 ovarian) of the same molecule?
Its TGI is 0.709 µM.

And the GI50 (OVCAR-4 ovarian)?
The GI50 was 0.281 µM.

What about the TGI (OVCAR-4 ovarian) of the same molecule?
Its TGI is 7.69 µM.

And the GI50 (MDA-MB-435)?
The GI50 was 17.1 µM.

And the TGI (MDA-MB-435)?
The TGI was 43.9 µM.

What about the GI50 (PC-3 prostate) of the same molecule?
Its GI50 is 15 µM.

What about the TGI (PC-3 prostate) of the same molecule?
The TGI was 47.1 µM.

And the GI50 (BT-549 breast)?
Its GI50 is 3.65 µM.

And the TGI (BT-549 breast)?
Its TGI is 17.5 µM.

What about the GI50 (UACC-62 melanoma) of the same molecule?
The GI50 was 0.0565 µM.

What about the TGI (UACC-62 melanoma) of the same molecule?
The TGI was 0.601 µM.

And the GI50 (OVCAR-3 ovarian)?
Its GI50 is 0.495 µM.

What about the TGI (OVCAR-3 ovarian) of the same molecule?
Its TGI is 8.23 µM.

And the GI50 (SNB-19 CNS)?
Its GI50 is 15.8 µM.

What about the TGI (SNB-19 CNS) of the same molecule?
Its TGI is 64.5 µM.

And the GI50 (T-47D breast)?
Its GI50 is 0.0386 µM.

And the TGI (T-47D breast)?
The TGI was 0.55 µM.

What about the GI50 (SF-268 CNS) of the same molecule?
Its GI50 is 12.3 µM.

What about the TGI (SF-268 CNS) of the same molecule?
The TGI was 36.7 µM.

And the GI50 (RXF 393 renal)?
Its GI50 is 0.424 µM.

And the TGI (RXF 393 renal)?
The TGI was 4.44 µM.

What about the GI50 (UO-31 renal) of the same molecule?
Its GI50 is 1.66 µM.

What about the TGI (UO-31 renal) of the same molecule?
The TGI was 13 µM.

What about the GI50 (MDA-MB-231 breast) of the same molecule?
The GI50 was 6.02 µM.

And the TGI (MDA-MB-231 breast)?
Its TGI is 25.6 µM.

And the GI50 (OVCAR-5 ovarian)?
The GI50 was under 0.01 µM.

What about the TGI (OVCAR-5 ovarian) of the same molecule?
The TGI was 0.613 µM.

And the GI50 (SK-MEL-2 melanoma)?
Its GI50 is 0.986 µM.

What about the TGI (SK-MEL-2 melanoma) of the same molecule?
Its TGI is 6.72 µM.

And the GI50 (SR leukemia)?
Its GI50 is 15.9 µM.

What about the TGI (SR leukemia) of the same molecule?
Its TGI is 71.7 µM.

And the GI50 (U251 CNS)?
Its GI50 is 2.62 µM.

What about the TGI (U251 CNS) of the same molecule?
The TGI was 22.6 µM.

What about the GI50 (SN12C renal) of the same molecule?
Its GI50 is 4.66 µM.

And the TGI (SN12C renal)?
Its TGI is 21.6 µM.

And the GI50 (A549 NSCLC)?
The GI50 was 2.64 µM.

What about the TGI (A549 NSCLC) of the same molecule?
The TGI was 40.8 µM.

What about the GI50 (OVCAR-8 ovarian) of the same molecule?
Its GI50 is 4.36 µM.

What about the TGI (OVCAR-8 ovarian) of the same molecule?
The TGI was 40 µM.

What about the GI50 (MOLT-4 leukemia) of the same molecule?
Its GI50 is 19.6 µM.

What about the TGI (MOLT-4 leukemia) of the same molecule?
The TGI was 54 µM.

And the GI50 (RPMI-8226 leukemia)?
Its GI50 is 0.636 µM.

What about the TGI (RPMI-8226 leukemia) of the same molecule?
Its TGI is 5.23 µM.

What about the GI50 (SNB-75 CNS) of the same molecule?
The GI50 was 4.52 µM.

And the TGI (SNB-75 CNS)?
The TGI was 19.9 µM.

And the GI50 (HCC-2998 colon)?
Its GI50 is 4.09 µM.

What about the TGI (HCC-2998 colon) of the same molecule?
Its TGI is 20.3 µM.

What about the GI50 (A498 renal) of the same molecule?
Its GI50 is 0.0115 µM.

What about the TGI (A498 renal) of the same molecule?
The TGI was 0.0323 µM.

What about the GI50 (DU-145 prostate) of the same molecule?
The GI50 was 8.11 µM.

What about the TGI (DU-145 prostate) of the same molecule?
The TGI was 31.8 µM.

What about the GI50 (UACC-257 melanoma) of the same molecule?
The GI50 was 0.22 µM.

And the TGI (UACC-257 melanoma)?
The TGI was 0.517 µM.

What about the GI50 (HOP-62 NSCLC) of the same molecule?
The GI50 was 0.84 µM.

And the TGI (HOP-62 NSCLC)?
Its TGI is 21.7 µM.

And the GI50 (TK-10 renal)?
The GI50 was under 0.0115 µM.

What about the TGI (TK-10 renal) of the same molecule?
The TGI was 0.195 µM.

What about the GI50 (MALME-3M melanoma) of the same molecule?
Its GI50 is 8.68 µM.

And the TGI (MALME-3M melanoma)?
Its TGI is 30.5 µM.

And the GI50 (HL-60(TB) leukemia)?
Its GI50 is 3.9 µM.

And the TGI (HL-60(TB) leukemia)?
Its TGI is 21.4 µM.
